Results: PubChem BioAssay (NCI)
“And” between values parts separate entries of the source, which are not always exact repeats. Equal entries are not always repeated.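 Test compounds were applied to cells in 96-well plates for 48 hours at 5 doses. GI50 = concentration required for 50% inhibition of growth. TGI denotes the concentration required for complete inhibition of growth.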

Columns and labels:
Test in all cases: NCI tumour cell line growth inhibition, 48 h
A498 renal = system: A498 renal
HOP-62 NSCLC = system: HOP-62 NSCLC
SK-OV-3 ovarian = system: SK-OV-3 ovarian
OVCAR-3 ovarian = system: OVCAR-3 ovarian
HOP-92 NSCLC = system: HOP-92 NSCLC
HCC-2998 colon = system: HCC-2998 colon
RXF 393 renal = system: RXF 393 renal
ACHN renal = system: ACHN renal
NCI-H226 lung = system: NCI-H226 lung
SR leukemia = system: SR leukemia

Row | SMILES | TGI (A498 renal) [µM] | TGI (HOP-62 NSCLC) [µM] | TGI (SK-OV-3 ovarian) [µM] | TGI (OVCAR-3 ovarian) [µM] | TGI (HOP-92 NSCLC) [µM] | TGI (HCC-2998 colon) [µM] | TGI (RXF 393 renal) [µM] | TGI (ACHN renal) [µM] | TGI (NCI-H226 lung) [µM] | TGI (SR leukemia) | GI50 (OVCAR-3 ovarian) [nM] | GI50 (HOP-92 NSCLC) [µM] | GI50 (SR leukemia) [µM] | GI50 (A498 renal) [nM] | GI50 (SK-OV-3 ovarian) [nM] | GI50 (HCC-2998 colon) [nM] | GI50 (RXF 393 renal) [nM] | GI50 (ACHN renal) [nM] | GI50 (NCI-H226 lung) [µM]
1 | O=C1/C(=C/c2ccc(Cl)cc2)N=C(c2ccccc2)N1C1Nc2cc3c(cc2S1)NC(N1C(=O)/C(=C/c2ccc(Cl)cc2)N=C1c1ccccc1)S3 (stereo unspecified) | > 100 | > 100 | > 100 | > 100 | > 100 | > 100 | > 100 | > 100 | > 100 | 74.1 µM | – | – | – | – | – | – | – | – | –
2 | Cn1c(=O)c2nc3nnc(C#N)c(N)n3c2n(C)c1=O | > 100 | > 100 | > 100 | > 100 | > 100 | > 100 | > 100 | > 100 | > 100 | > 100 µM | – | – | – | – | – | – | – | – | –
3 | O=c1oc2cccnc2n1CCN1CCN(c2ccc(Oc3ccccc3)cc2)CC1 | > 100 | > 100 | > 100 | > 100 | > 100 | > 100 | > 100 | > 100 | – | > 100 µM | – | – | – | – | – | – | – | – | –
4 | BrCCC[P+](c1ccccc1)(c1ccccc1)c1ccccc1 | > 100 | > 100 | > 100 | 38.6 | 44.4 | > 100 | 7.55 | > 100 | > 100 | > 100 µM | – | – | – | – | – | – | – | – | –
5 | CC(=O)O[C@H]1[C@@H](OC2CCCC2(c2ccccc2)c2ccccc2)O[N+]([O-])=C[C@@]12COCc1cc3c(cc12)OCO3 (stereo partly specified) | 7.67 | 7.67 | > 91.6 | 4.71 | 30.7 | 11.9 | 17.5 | > 43.6 | 15.8 | > 23.6 µM | – | – | – | – | – | – | – | – | –
6 | O=c1[nH]cc(N(CCCl)CCCl)c(=O)[nH]1 | 191 | 81.7 | 183 | 223 | 123 | 136 | 81.1 | 92.6 | 179 | 55.1 µM | – | – | – | – | – | – | – | – | –
7 | COc1cc(/C=C/c2sc3ccccc3[n+]2C)ccc1N(C)C | > 100 | 32.8 | 54.8 | 13 | 34.9 | 53.4 | 33.5 | 28.6 | 50.6 | 7.71 µM and 36.3 µM | 3150 | 13 | 6.85 | – | – | – | – | – | –
8 | O=C(Nc1nncs1)NS(=O)(=O)n1cnc2ccccc21 | > 100 | > 100 | > 100 | > 100 | > 100 | > 100 | > 100 | > 100 | > 100 | > 100 µM | – | – | – | – | – | – | – | – | –
9 | COCC(=O)OC1CCn2c1nc1c2C(=O)C(C)=C(NC(C)=O)C1=N (stereo unspecified) | 32.9 | 29.2 | 37.5 | 5.85 | 9.11 | 27.7 | 6.47 | 19.9 | 33.2 | 7.52 µM | – | – | – | – | – | – | – | – | –
10 | NC(CCCCN=Cc1nc(-c2ccccc2)oc1O)C(=O)O (stereo unspecified) | > 100 | > 100 | > 100 | > 100 | > 100 | > 100 | > 100 | > 100 | > 100 | > 100 µM | – | – | – | – | – | – | – | – | –
11 | CCN(CC)CCNc1ccc2ncn3c4c(OC)cccc4c(=O)c1c23 | 33.4 | 98 | 24 | 50.9 | 18.4 | 18.6 | 11.6 | 25.2 | 20.8 | 20.8 µM | – | – | – | – | – | – | – | – | –
12 | COc1cc2c(oc(=O)c3cc4ccoc4c(OC)c32)c2cccc(O)c12 | > 100 | > 100 | > 100 | > 100 | > 100 | > 100 | > 100 | > 100 | > 100 | > 100 µM | – | – | – | – | – | – | – | – | –
13 | O=c1c[n+](-c2ccccc2)[nH]o1 | > 100 | > 100 | > 100 | > 100 | > 100 | > 100 | > 100 | > 100 | – | > 100 µM | – | – | – | – | – | – | – | – | –
14 | O=C1N(CN2CCOCC2)CN(CN2CCOCC2)C(=O)N1Cc1ccccc1 | > 100 | > 100 | > 100 | 59.7 | 73 | > 100 | 35.7 | > 100 | > 100 | 40.7 µM | – | – | – | – | – | – | – | – | –
15 | COc1ccc(C(=O)Cn2c(C(C)=O)nc3ccccc32)cc1 | > 100 | 65.7 | > 100 | > 100 | > 100 | > 100 | > 100 | > 100 | > 100 | > 100 µM | – | – | – | – | – | – | – | – | –
16 | CC1(C)CCCCCC(C)(CCCCCCCCCCCO)C1=O (stereo unspecified) | 33 | 31.6 | 31.7 | 29.9 | 31.2 | 39.9 | 31.4 | 25.7 | 32.3 | 14.3 µM | – | – | – | – | – | – | – | – | –
17 | COc1ccc(/C=C(\C(=O)OCC(C)C)c2ccc(OC)c(OC)c2)cc1OC | > 100 | > 100 | – | > 100 | > 100 | > 100 | > 100 | > 100 | > 100 | > 100 µM | – | – | – | – | – | – | – | – | –

Row | SMILES | TGI (A498 renal) [µM] | TGI (HOP-62 NSCLC) [µM] | TGI (SK-OV-3 ovarian) [µM] | TGI (OVCAR-3 ovarian) [µM] | TGI (HOP-92 NSCLC) [µM] | TGI (HCC-2998 colon) [µM] | TGI (RXF 393 renal) [µM] | TGI (ACHN renal) [µM] | TGI (NCI-H226 lung) [µM] | TGI (SR leukemia) | GI50 (OVCAR-3 ovarian) [nM] | GI50 (HOP-92 NSCLC) [µM] | GI50 (SR leukemia) [µM] | GI50 (A498 renal) [nM] | GI50 (SK-OV-3 ovarian) [nM] | GI50 (HCC-2998 colon) [nM] | GI50 (RXF 393 renal) [nM] | GI50 (ACHN renal) [nM] | GI50 (NCI-H226 lung) [µM]
18 | O=c1oc2cc(O)ccc2cc1-c1nc2ccccc2s1 | 51.1 | 41.6 | 78.1 | 45.6 | > 100 | 66.1 | 79.9 | 52.4 | – | > 100 µM | – | – | – | – | – | – | – | – | –
19 | O=NNc1cnccn1 | > 1250 | 265 | > 330 | > 1250 | > 1250 | > 1250 | > 1250 | > 1250 | > 1250 | > 1110 µM | – | – | – | – | – | – | – | – | –
20 | CC(=O)O[C@H]1CC[C@H]2[C@@H]3CCC4=C(C(=O)C=CC4(C)OC(C)=O)[C@H]3CC[C@]12C (stereo partly specified) | > 100 | > 100 | – | > 100 | > 100 | > 100 | 92.1 | > 100 | > 100 | > 100 µM | – | – | – | – | – | – | – | – | –
21 | CCOC(=O)NC(NNc1ccc([N+](=O)[O-])cc1[N+](=O)[O-])(C(F)(F)F)C(F)(F)F | 73 | > 100 | 69.4 | > 100 | 47.3 | > 100 | > 100 | > 100 | > 100 | 60.6 µM | – | – | – | – | – | – | – | – | –
22 | CC(=O)OCC1OC(n2c3c(cc(C#N)c2=S)CCCCCC3)C(OC(C)=O)C(OC(C)=O)C1OC(C)=O (stereo unspecified) | > 100 | > 100 | – | > 100 | > 100 | > 100 | > 100 | > 100 | > 100 | > 100 µM | – | – | – | – | – | – | – | – | –
23 | C[N+](C)(C)C1(C(=O)[O-])CC1 | > 100 | > 100 | – | > 100 | > 100 | > 100 | > 100 | > 100 | > 100 | > 100 µM | – | – | – | – | – | – | – | – | –
24 | O=C(O)C(Cc1cnc[nH]1)N=Cc1nc(-c2ccccc2)oc1O (stereo unspecified) | > 100 | > 100 | > 100 | > 100 | > 100 | > 100 | > 100 | > 100 | > 100 | > 100 µM | – | – | – | – | – | – | – | – | –
25 | COc1ccc2c[n+](C)c3c4cc(OC)c(OC)cc4ccc3c2c1 | > 100 | 27.7 | 14.7 | 17.7 | 35.3 | 34.3 | 35.2 | > 92.5 | 35.1 | 14.4 µM | – | – | – | – | – | – | – | – | –
26 | O=Cc1[nH]c(=O)[nH]c(=O)c1CCl | > 100 | > 100 | > 100 | > 100 | > 100 | > 100 | > 100 | > 100 | > 100 | 57.7 µM | – | – | – | – | – | – | – | – | –
27 | COc1cc(C=Nc2ccc(S(N)(=O)=O)cc2)cc(OC)c1 | > 50 | > 50 | > 50 | > 50 | > 50 | > 50 | > 50 | > 50 | > 50 | > 50 µM | – | – | – | – | – | – | – | – | –
28 | CCCN1CN(c2ccccc2)C2(CCN(CCCC(=O)c3ccc(F)cc3)CC2)C1=O | 5.67 | 8.66 | 43.1 | 30.3 | 8.98 | 20.8 | 37 | 12.9 | 22.3 | 41.4 µM | – | – | – | – | – | – | – | – | –
29 | Cc1ccc(S(=O)C[C@@]2(C(F)F)NC(=O)NC2=O)cc1 (stereo partly specified) | > 100 | > 100 | > 100 | > 100 | > 100 | > 100 | > 100 | > 100 | > 100 | > 100 µM | – | – | – | – | – | – | – | – | –
30 | c1ccc2c(c1)CCN1CCc3c([nH]c4ccccc34)C21 (stereo unspecified) | 54.5 | > 100 | > 100 | 66.7 | 72.2 | 34 | 72.3 | > 100 | 97.5 | 56.3 µM | – | – | – | – | – | – | – | – | –
31 | O=C(N1CCC(CN=c2cc3n(-c4ccc(Cl)cc4)c4ccccc4nc-3cc2Nc2ccc(Cl)cc2)CC1)N1CC1 | 3.61 | – | 4.64 | 2.69 | 37 | 1.58 | 1.29 | 3.21 | 74.2 | 2.25 µM | 1100 | 13.5 | 0.337 | 1750 | 2250 | 632 | 369 | 1630 | 23.6
32 | COc1ccc(C(=O)/C=C/c2ccc(OCC(=O)O)cc2)cc1 | > 100 | > 100 | – | > 100 | > 100 | > 100 | > 100 | > 100 | – | > 100 µM | – | – | – | – | – | – | – | – | –
33 | O=C(O)CSc1nnc(CCCCCCCCc2nnc(SCC(=O)O)o2)o1 | > 100 | > 100 | > 100 | – | > 100 | > 100 | > 100 | > 100 | > 100 | > 100 µM | – | – | – | – | – | – | – | – | –
34 | OCCCCn1cc(Cn2ncc3c(SCc4ccccc4)ncnc32)nn1 | > 100 | > 100 | > 100 | > 100 | > 100 | > 100 | > 100 | > 100 | > 100 | 85.4 µM | – | – | – | – | – | – | – | – | –
